Patent US20220280423A1, “GLYMPHATIC DELIVERY BY MANIPULATING PLASMA OSMOLARITY” (University of Rochester, priority 2018, published 2022)

Legend:
[1] = Plasma osmolality after intraperitoneal injection; assay type: in vivo, C57BL/6 mice; settings: i.p., KX-anesthetized mice, lasting 30 minutes
Experimental: Solutions. Control mice received isosmotic saline ([…]; 20 μL/g, i.p.). Hyperosmolality was induced either with mannitol (1M in 0.34M NaCl; 30 μL/g, i.p.) or hypertonic saline (1M NaCl in ddH2O; 20 μL/g, i.p.). Thirty minutes after intraperitoneal injection, a plasma sample was taken, and the mouse decapitated. Plasma osmolality was measured in triplicate using a micro-osmometer (Advanced Instruments).

glymphatic CSF influx [2] = test: Transcranial macroscopic imaging of CSF tracer (BSA-647) influx, plasma hypertonicity in KX-anesthetized mice; assay type: in vivo, C57BL/6 mice
Experimental: Intracisternal injections. Mice in the KX groups were weighed and anesthetized with a mixture of ketamine (100 mg/kg, i.p.) and xylazine (10 mg/kg, i.p.). Afterwards, animals were fixed in a stereotaxic frame, and the cisterna magna was surgically exposed with the help of a stereomicroscope. The cisternal space was cannulated using a 30 G needle attached via polyethylene tubing to a Hamilton syringe. The needle was secured with cyanoacrylate glue and tracers were infused with a syringe pump (Harvard Apparatus) depending on the experimental paradigm (see below). Mice randomized to the awake group were anesthetized with 2% isoflurane, their skull cemented to a customized head plate, placed in a restraint tube, and then underwent the same surgical procedure as described above. Tracers were allowed to circulate for 30 min after the injection start time and the needle left in place for the duration of the experiment to prevent the CSF compartment from depressurizing. Core temperature (37° C.) and anesthetic depth were maintained throughout the experiment. At the end of 30 min, animals were decapitated, and the brain processed for either fluorescent or radioisotope tracer analysis.
CSF Tracers. AlexaFluor647-conjugated bovine serum albumin (BSA-647, 66 kDa, Invitrogen) was constituted in artificial CSF (0.5% m/v) and used as a fluorescent CSF tracer. […] Fluorescent tracers and antibodies were infused in a total volume of 10 μl at a rate of 2 μl/min or 1 μl/min into the cisterna magna.
Transcranial In vivo Macroscopic Imaging. For in vivo imaging, the skin covering the dorsal calvarium was incised and reflected laterally prior to cannulating the cisterna magna. The entry of CSF tracers into the brain was imaged by fluorescence macroscopy (MVX10, Olympus) using a PRIOR Lumen 1600-LED light source and Flash 4.0 digital camera (Hamamatsu). The mouse fixed on the stereotaxic frame was placed on the microscope stage and images at 20× magnification were acquired in the far-red emission channel (647 nm). Images (2048×2048 pixel; 5.7120 μm/pixel) were collected at 1 min intervals for 0-30 min following injection commencement using the MetaMorph Basic imaging software (Molecular Devices). Exposure time was held constant throughout the duration of the imaging sequence and across experimental groups.
Front tracking. To quantify the area and speed of fluorescent CSF tracer influx in the brain, inventors employed an algorithm recently developed in the context of advection-reaction-diffusion (56). Given a time series of a two-dimensional concentration field, this algorithm tracked the location of the “front” which separates low-concentration and high-concentration regions. The algorithm outputs spatially- and temporally-resolved velocity measurements quantifying the front propagation. Influx speed was calculated by averaging over the entire group data to obtain mean front speed measurements for each group. The propagation front was identified using a threshold of 175 (on an 8-bit scale of 0 to 255); however, it was noted that the results were fairly robust to different threshold choices. This same threshold was used for all-time series of images, which was justified since care was taken to maintain similar imaging conditions across all experiments. A fixed threshold preserved the physical meaning of the front and allowed for quantitative comparison between populations from different experiments.
Solutions. Control mice received isosmotic saline (0.34M NaCl in ddH2O; 20 μL/g, i.p.).

BBB = test: Assessment of BBB permeability (FITC-dextran extravasation); assay type: in vivo, C57BL/6 mice; settings: anesthetized mice, 30 min after i.p. injection
Experimental: Assessment of BBB Permeability. For quantification of BBB disruption, a 1% solution of FITC-conjugated dextran (70 kDa; Sigma-Aldrich) in normal saline (4 mL/kg of body weight) was injected via the femoral vein. The dextran was allowed to circulate for 30 min following plasma tonicity manipulations, at which point a plasma sample was taken and the mice were perfusion-fixed as described below. Positive controls received a 2M mannitol infusion via a catheter in the right external carotid artery (0.64 mL/min for 30 seconds) 5 minutes after the dextran. The brains were harvested, sectioned, and FITC extravasation was imaged and quantified (see below). Plasma concentration of the FITC dextran was calculated by diluting the plasma samples 1:4 with PBS and analyzing them in triplicate on a fluorescence microplate reader (SpectraMax M2, Molecular Devices) at 458 nm excitation, 538 nm emission, with a cutoff above 530 nm at room temperature (24° C.). Dextran concentration was estimated by comparing the relative fluorescence of the samples against a standard curve (0.0-1.0 mg/mL, 0.1 mg/mL steps; FITC-dextran 70 kDa in PBS) fitted with a linear regression. Blood samples with hemolysis were excluded from analysis due to interference with spectrophotometric absorbance readings.
Image Analysis. All images were analyzed using ImageJ software (National Institutes of Health, imagej.nih.gov/ij/) (60). […]

glymphatic CSF influx [3] = test: Transcranial macroscopic imaging of CSF tracer (BSA-647) influx, plasma hypertonicity in awake mice; assay type: in vivo, C57BL/6 mice
Experimental: Intracisternal injections. Mice in the KX groups were weighed and anesthetized with a mixture of ketamine (100 mg/kg, i.p.) and xylazine (10 mg/kg, i.p.). Afterwards, animals were fixed in a stereotaxic frame, and the cisterna magna was surgically exposed with the help of a stereomicroscope. The cisternal space was cannulated using a 30 G needle attached via polyethylene tubing to a Hamilton syringe. The needle was secured with cyanoacrylate glue and tracers were infused with a syringe pump (Harvard Apparatus) depending on the experimental paradigm (see below). […]
Transcranial In vivo Macroscopic Imaging. […] The entry of CSF tracers into the brain was imaged by fluorescence macroscopy (MVX10, Olympus) using a PRIOR Lumen 1600-LED light source and Flash 4.0 digital camera (Hamamatsu). […]
Front tracking. To quantify the area and speed of fluorescent CSF tracer influx in the brain, inventors employed an algorithm recently developed in the context of advection-reaction-diffusion (56). […] The algorithm outputs spatially- and temporally-resolved velocity measurements quantifying the front propagation. Influx speed was calculated by averaging over the entire group data to obtain mean front speed measurements for each group. […] A fixed threshold preserved the physical meaning of the front and allowed for quantitative comparison between populations from different experiments. […]

[4] = Intracranial pressure, arterial blood pressure and laser Doppler cerebral blood flow; assay type: in vivo, C57BL/6 mice
Text: Intracranial and Arterial Blood Pressure Measurements. A separate group of animals were anesthetized with a mixture of ketamine/xylazine. Afterwards, a 30 G needle connected to rigid polyethylene tubing filled with aCSF was inserted into the cisterna magna as described above and an arterial catheter was placed in the femoral artery. The lines were connected to a pressure transducer and monitor (World Precision Instruments). Recordings were allowed to stabilize, and then recorded continuously for 35 min (5 min baseline and 30 min after i.p. injection). The signals were digitized and recorded with a DigiData 1440A digitizer and AxoScope software (Axon Instruments). The intracranial and mean arterial pressure recordings were processed and analyzed using MATLAB (MathWorks).
Laser Doppler Flowmetry. Relative changes in cerebral blood flow (rCBF) were measured using laser Doppler flowmetry (PF5010 Laser Doppler Perfusion Module with microtips, PR 418-1, Perimed). The tip of the fiber optic probe was fixed directly onto the exposed skull with cyanoacrylate glue. Signals were collected using a 1440A digitizer and AxoScope software (Axon Instruments). For each mouse, rCBF was recorded both 5 minutes before and 30 minutes after the administration of i.p. solutions. The rCBF recordings were processed and analyzed using MATLAB (MathWorks).
Consequently, assays were carried out to determine if tonicity-induced changes in one of these parameters might be responsible for the observed enhancement of glymphatic CSF influx. […] This net negative ICP resulted from the outflow of ISF across the BBB (FIG. 15D), and likely provided the necessary driving force to increase CSF influx to cerebral tissues. Importantly. this transfer of brain water to the vascular column occurred across an intact BBB (FIGS. 12A-C).

[5] = Radioisotope influx (brain uptake of CSF-delivered tracers); settings: 30 min
Experimental: Fluorescent tracers and antibodies were infused in a total volume of 10 μl at a rate of 2 μl/min or 1 μl/min into the cisterna magna. Radioisotope tracers were infused in a total volume of 5 μl at 1 μl/min.
Radioisotope Influx. […] After 30 min, animals were rapidly decapitated, the skull and dura removed, and the brain harvested. Brain radioactivity was normalized to the total radioactivity detected in a 5 μL aliquot put directly into a scintillation vial immediately before intracisternal injection. All brain tissue was weighed and solubilized in 0.5 mL tissue solubilizer (Solvable, PerkinElmer) overnight. Upon solubilization, 5 mL of scintillation cocktail was added (Ultima Gold, PerkinElmer). The injectate controls were treated in the same way as the tissue samples. All samples were analyzed by liquid scintillation spectrometry using a scintillation counter (LS 6500 Multipurpose Scintillation Counter, Beckman Coulter). The radioactivity (disintegrations per minute: dpm) remaining in the brain after injection (percent of injected dose: %ID) was determined as
where Rb is the radioactivity remaining in the brain at the end of the experiment and Ri is the radioactivity in the injectate controls for each experiment. Influx percentage was deduced as % ID. […]

Molecule	plasma osmolality [1]	reduction of the time to delivery of CSF tracer (glymphatic CSF influx [2]; KX-anesthetized mice, i.p.)	dorsal cortical surface covered by CSF tracer (glymphatic CSF influx [2]; KX-anesthetized mice, i.p., 30 min imaging)	increase in the influx area of CSF tracer (glymphatic CSF influx [2]; KX-anesthetized mice, i.p., vs isotonic controls)	penetration of an intracisternally-delivered CSF tracer (glymphatic CSF influx [2]; intraperitoneal)	increase of influx speeds of CSF tracer (glymphatic CSF influx [2]; intraperitoneal, intracisternally-delivered CSF tracer)	BBB permeability (BBB)	tracer influx rates across the entire dorsal cortex, faster than isotonic (glymphatic CSF influx [3])	increase in tracer influx area (glymphatic CSF influx [3]; at 30 min)	relative cerebral blood flow (rCBF) ([4]; 30-min recording after i.p.)	ICP relative to the isotonic controls ([4]; 30 min after i.p.)	mean arterial blood pressure (MAP) ([4]; anesthetized mice, i.p.)	increase in the fractional tracer uptake to brain ([5]; plasma hyperosmolality (HTS or mannitol i.p.) vs isotonic)	total injected tracer delivered to the brain parenchyma ([5]; plasma hyperosmolality (HTS or mannitol i.p.))
OC[C@@H](O)[C@@H](O)[C@H](O)[C@H](O)CO [mannitol]	significantly elevated	roughly half	approximately 60%	five-fold	doubled	about 70%	no significant increase	roughly 1.5 fold	circa 20 fold	slight reduction	significantly and consistently declined	reduced		
^14C-inulin													roughly 125%	approximately 40%
